Results on seven compounds are retold here after ChEMBL document CHEMBL5537108, “A comprehensive review on the global efforts on vaccines and repurposed drugs for combating COVID-19” (Eur J Med Chem, 2023).

Holding throughout (format): functional, organism-based
In assay [1] the test system is Middle East respiratory syndrome-related coronavirus. The assay is described as follows: Antiviral activity against MERS-CoV infected in human Calu-3 cells assessed as inhibition of viral growth by infection assay.
For assay [2], the system named is SARS-CoV-2. The experiment in a line: Antiviral activity against SARS-CoV-2 infected in African green monkey Vero cells assessed as reduction in viral replication measured after 72 hrs by qRT-PCR analysis. To be noted: Severe acute respiratory syndrome coronavirus 2, Vero. A general note: In qPCR the cycle at which signal appears reflects the starting amount.
Assay [3] concerns Ebolavirus. The assay is described as follows: Antiviral activity against Ebola virus infected in African green monkey Vero cells incubated for 3 days by immunofocus assay. To be noted: Orthoebolavirus, 72 h.
The test system of assay [4] is SARS-CoV-2. The assay is described as follows: Antiviral activity against SARS-CoV-2 infected in African green monkey Vero cells assessed as reduction in virus-induced cytopathic effect incubated for 5 days by microscopic analysis. The following applies: Severe acute respiratory syndrome coronavirus 2, Vero, 120 h.
For assay [5], the system named is SARS-CoV-2. The experiment in a line: Antiviral activity against SARS-CoV-2 B.1.1.7 infected in human Calu-3 cells assessed as inhibition of viral infection measured after 48 hrs by Hoechst 33342 staining based analysis. The following applies: Severe acute respiratory syndrome coronavirus 2, B.1.1.7, Calu-3, 48 h.
For assay [6], the system named is Ebolavirus. The experiment in a line: Antiviral activity against EBOV infected in human Huh-7 cells assessed as reduction in viral replication. To be noted: Orthoebolavirus.
Assay [7] relates to Middle East respiratory syndrome-related coronavirus. The experiment in a line: Antiviral activity against MERS-CoV infected in african green monkey Vero E6. To be noted: Vero C1008.
For assay [8], the system named is SARS-CoV-2. The experiment in a line: Antiviral activity against SARS-CoV-2 NRC-03-nhCoV infected in african green monkey Vero E6 cells assessed as inhibition of virus-induced cytopathic effect measured after 72 hrs by crystal violet staining based assay. The following applies: Severe acute respiratory syndrome coronavirus 2, NRC-03-nhCoV, Vero C1008, 72 h. Background: Damage to the host cells serves as the signal in cytopathic effect assays.

Counter-ions that a name gives are not always drawn.

The EC50 is the concentration at which the effect is half-maximal.

In the case of `CN(C)C(=O)COC(=O)Cc1ccc(OC(=O)c2ccc(NC(=N)N)cc2)cc1` [CAMOSTAT], the EC50 in assay [1] was 0.005 µM.
For `CC(C)c1nc(CN(C)C(=O)N[C@H](C(=O)N[C@@H](Cc2ccccc2)C[C@H](O)[C@H](Cc2ccccc2)NC(=O)OCc2cncs2)C(C)C)cs1` [RITONAVIR], the EC50 with SARS-CoV-2 [2] came to 8.63 µM.
Regarding `CCC(CC)COC(=O)[C@H](C)N[P@](=O)(OC[C@H]1O[C@@](C#N)(c2ccc3c(N)ncnn23)[C@H](O)[C@@H]1O)Oc1ccccc1`, the EC50 was 0.77 µM in the assay with Ebolavirus [3], 0.01 µM in the assay on SARS-CoV-2 [4], 67 µM in the assay with SARS-CoV-2 [5] and 61.9 µM with Ebolavirus [6].
On to `CN1CCN(CCOc2cc(OC3CCOCC3)c3c(Nc4c(Cl)ccc5c4OCO5)ncnc3c2)CC1` [SARACATINIB], for which the EC50 in assay [7] is 10 µM.
Regarding `N=C(N)Nc1ccc(C(=O)Oc2ccc3cc(C(=N)N)ccc3c2)cc1` [NAFAMOSTAT MESYLATE], the EC50 in assay [1] worked out at 0.087 µM.
Take `Cc1nc(Nc2ncc(C(=O)Nc3c(C)cccc3Cl)s2)cc(N2CCN(CCO)CC2)n1` [DASATINIB ANHYDROUS]: the EC50 in the assay on SARS-CoV-2 [8] came out at 2.1 µM.
For the compound `Cc1cccc(C)c1OCC(=O)N[C@@H](Cc1ccccc1)[C@@H](O)C[C@H](Cc1ccccc1)NC(=O)[C@H](C(C)C)N1CCCNC1=O` [LOPINAVIR], the EC50 with SARS-CoV-2 [2] was found to be 5.73 µM.
